The results in this text go back to patent US8808715B1, “Methods and compositions for modulating keratinocyte function” (Georgia Regents Research Institute, Inc, priority 2004, dated 2014).

Each structure is given as a SMILES string.

What all share (type): cell-based, mouse
For test [1], the system named is primary epidermal keratinocytes. The test is described as follows: Radiolabeled phosphatidylglycerol formation in intact keratinocytes. The protocol: Primary epidermal keratinocytes were prepared from 1-3-day old neonatal ICR mice after trypsin flotation of the skin and mechanical separation of the epidermis from the dermis. The epidermal cells were released by scraping, collected by centrifugation and plated in 6-well dishes in a medium consisting of MEM containing 25 μM calcium, 2% dialyzed fetal bovine serum, 2 mM glutamine, 5 ng/mL EGF, ITS (6.25 μg/mL insulin+6.25 μg/mL transferrin+6.25 ng/mL selenious acid+5.35 μg/mL linoleic acid+1.25% bovine serum albumin), 100 U/mL penicillin, 100 μg/mL streptomycin and 0.25 μg/mL fungizone. After an overnight incubation, the cells were refed with serum-free keratinocyte medium (SFKM), in which 2% dialyzed fetal bovine serum was replaced with 90 μg/mL bovine pituitary extract. Cells were refed with fresh medium every 1-3 days.
For the PLD assay cultured primary keratinocytes were labeled for 20-24 hours with 2.5 μCi/ml [^3H] oleic acid. The cells were then exposed to vehicle or 100 nM PMA in the presence of 0.5% ethanol for 30 minutes. To measure the formation of radiolabeled phosphatidylglycerol, cells were treated for 24 hours with SFKM containing vehicle, 250 nM 1,25-dihydroxyvitamin D3 or 125 μM calcium and then labeled for an additional 30 minutes with 1-2.5 μCi/mL [^3H] or 0.4-0.5 μCi/mL [^14C]glycerol. For experiments investigating the extracellular calcium dependence of PG formation, cells were incubated for 24 hours in SFKM containing various calcium concentrations prior to the addition of 5 μCi/mL [^3H]glycerol for 30 minutes. In some cases, cells were stimulated with 25 μM calcium (control)—or 125 μM calcium-containing SFKM for 24 hours prior to the addition of [^14C]glycerol in the presence and absence of 1% ethanol. To measure phosphatidylglycerol formation in response to PMA, unlabeled cells were stimulated with 100 nM PMA in the presence of radiolabeled glycerol, as above. Reactions were terminated and the radiolabeled phosphatidylalcohol extracted, separated by thin-layer chromatography and quantified as described by Bollag (1998), referenced above.

The test system of another test is keratin 5 promoter. The test is described as follows: Co-transfection analysis, keratin 5 promoter-luciferase reporter. The note with it: 1 mM calcium, 24 hours. The protocol:
FIGS. 15A-B illustrate that glycerol, but not xylitol or sorbitol, inhibits DNA synthesis and enhances the inhibitory effect of an elevated extracellular Ca^2+ concentration. (A) Near-confluent keratinocytes were incubated for 24 hours with 0.02 or 0.1% glycerol and DNA synthesis measured as the incorporation of [^3H] thymidine incorporation into DNA. (B) Near-confluent keratinocytes were incubated for 24 hours with the indicated concentrations of glycerol (G, squares) or equivalent concentrations of xylitol (X, circles) in SFKM containing 25 μM (control; open symbols) or 125 μM Ca^2+ (Ca^2+; closed symbols). (C) Near-confluent keratinocytes were incubated for 24 hours with the indicated concentrations of glycerol (G) or equivalent concentrations of sorbitol (S, triangles) in SFKM containing 25 μM (control; open symbols) or 125 μM Ca^2+ (Ca^2+; closed symbols) for 24 hours. [^3H]Thymidine incorporation into DNA was then determined. Values represent the means±SEM of 4 to 5 separate experiments performed in duplicate; *p<0.05, **p<0.01 versus the control value, †p<0.05 versus the value in the presence of Ca^2+ alone. […] After 24 hours cells were refed with medium containing no addition (control) or 0.2% glycerol for an additional 24 hours. Luciferase activity was then measured using a Dual Luciferase kit as directed by the manufacturer. […] The blots were quantified using the Kodak molecular imaging software. […]
The keratin 5 and keratin 10 promoter-luciferase constructs were provided by of Dr. Bogi Andersen (University of California, Irvine, Calif.); the involucrin promoter-luciferase construct was provided by Dr. Daniel Bikle (University of California, San Francisco, Calif.). […] Luciferase activity was then measured using the Dual Luciferase Reporter Assay kit (Promega, Madison, Wis.) as directed by the manufacturer.
A general note: Reporter assays use an easily measured gene product as a stand-in for the process of interest.

The test system of a further test is keratin 10 promoter. Put plainly: Co-transfection analysis, keratin 10 promoter-luciferase reporter. To be noted: 1 mM calcium, 24 hours. The protocol: The keratin 5 and keratin 10 promoter-luciferase constructs were provided by of Dr. Bogi Andersen (University of California, Irvine, Calif.); the involucrin promoter-luciferase construct was provided by Dr. Daniel Bikle (University of California, San Francisco, Calif.). Sub-confluent (approximately 30%) keratinocytes were transfected using TransIT-Keratinocyte according to the manufacturer's instructions. After 24 hours cells were refed with medium containing 25 μM (control) or 1 mM-Ca^2+ for an additional 24 hours. Luciferase activity was then measured using the Dual Luciferase Reporter Assay kit (Promega, Madison, Wis.) as directed by the manufacturer.

Another test concerns involucrin. The test is described as follows: Involucrin protein levels by western analysis. To be noted: 24 hours; PG liposomes in 25 uM Ca2+ medium, or 125 uM Ca2+ alone; normalized to actin. The protocol:
FIGS. 15A-B illustrate that glycerol, but not xylitol or sorbitol, inhibits DNA synthesis and enhances the inhibitory effect of an elevated extracellular Ca^2+ concentration. (A) Near-confluent keratinocytes were incubated for 24 hours with 0.02 or 0.1% glycerol and DNA synthesis measured as the incorporation of [^3H] thymidine incorporation into DNA. (B) Near-confluent keratinocytes were incubated for 24 hours with the indicated concentrations of glycerol (G, squares) or equivalent concentrations of xylitol (X, circles) in SFKM containing 25 μM (control; open symbols) or 125 μM Ca^2+ (Ca^2+; closed symbols). […] [^3H]Thymidine incorporation into DNA was then determined. […] Luciferase activity was then measured using a Dual Luciferase kit as directed by the manufacturer. […] The blots were quantified using the Kodak molecular imaging software. […]
PG was also examined for its ability to stimulate a marker of keratinocyte differentiation. Keratinocytes were treated with or without PG liposomes in 25 uM Ca^2+ (control) or 125 uM Ca^2+-containing medium for 24 hours and cell lysates were analyzed for involucrin protein levels (normalized to actin as a loading control) (FIG. 15E).

Regarding `[Ca+2]` [calcium], in test [1] (24 hours pretreatment (250 nM 1,25-dihydroxyvitamin D3 or 125 μM calcium), then [3H]glycerol 30 minutes), the “radiolabeled PG formation relative to control cells” value is “induced an increase in the subsequent production of PG”. Moreover, the “calcium concentration giving maximal stimulation of radiolabeled PG formation” value in test [1] (range 25 μM (control) to 1 mM, 24 hours, biphasic dose dependence) came out at 125 µM. Further, in the test with keratin 5 promoter, the “inhibition of keratin 5 promoter activity” value is given as 64%. For the same compound, in the test with keratin 10 promoter, the “inhibition of keratin 10 expression (promoter activity)” value came out at 22%. Besides, the “involucrin protein levels, each agent alone” value in the test with involucrin was “not significant effect”.
